Measured values reported in the supplement of paper PMC9912026.

Test system: A375_NRAS_Q61K_DOXind
Assay: pERK immunofluorescence relative to doxycycline-induced cells with 1 uM vemurafenib alone; higher = more ERK phosphorylation (less pathway inhibition)
Details: drug treatment time 24 h, doxycycline 1000 ng/mL, doxycycline pre-induction time 24 h, vemurafenib background 1 µM
Outline: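 A375 cells with doxycycline-inducible FLAG-tagged mutant NRAS were given doxycycline or mock for 24 h. They then received two-drug dose combinations with a third drug held at 1 uM for 24 h. Fixed cells were stained for phospho-ERK T202/Y204 and imaged at 10× on an Operetta, with FLAG-negative cells excluded. The cytosolic population mean is normalised to induced cells given the 1 uM drug alone; the value is the mean of 2 technical replicates. pERK was measured by immunofluorescence with FLAG-negative cells excluded. Averages of 2 technical replicates.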

CNc1ncc2cc(-c3cc(NC(=O)NCCC(C)(C)C)c(F)cc3C)c(C)nc2n1 + O=C(c1ccc(F)c(F)c1Nc1ccc(I)cc1F)N1CC(O)([C@@H]2CCCCN2)C1 [Cobimetinib]
pERK immunofluorescence
Details | drug B concentration 0 µM | drug B concentration 0.0001 µM | drug B concentration 0.000316228 µM | drug B concentration 0.001 µM | drug B concentration 0.00316228 µM | drug B concentration 0.01 µM | drug B concentration 0.0316228 µM | drug B concentration 0.1 µM | drug B concentration 0.316228 µM | drug B concentration 1 µM
drug A concentration 0 µM | – | 1.08 | 1.08 | 1.06 | 1.06 | 0.844 | 0.515 | 0.168 | 0.0479 | 0.0212
drug A concentration 0.000316228 µM | 0.724 | 0.706 | 0.786 | 0.747 | 0.709 | 0.579 | 0.323 | 0.0754 | 0.026 | 0.0165
drug A concentration 0.001 µM | 0.696 | 0.745 | 0.758 | 0.771 | 0.687 | 0.45 | 0.16 | 0.0453 | 0.0201 | 0.016
drug A concentration 0.00316228 µM | 0.664 | 0.697 | 0.767 | 0.651 | 0.592 | 0.268 | 0.0865 | 0.0262 | 0.0166 | 0.0158
drug A concentration 0.01 µM | 0.583 | 0.608 | 0.593 | 0.537 | 0.359 | 0.109 | 0.0388 | 0.0196 | 0.0161 | 0.0166
drug A concentration 0.0316228 µM | 0.455 | 0.528 | 0.47 | 0.389 | 0.185 | 0.0635 | 0.0285 | 0.0172 | 0.0158 | 0.0155
drug A concentration 0.1 µM | 0.306 | 0.31 | 0.287 | 0.187 | 0.0869 | 0.0387 | 0.0223 | 0.0174 | 0.0169 | 0.0168
drug A concentration 0.316228 µM | 0.122 | 0.116 | 0.108 | 0.077 | 0.0399 | 0.0224 | 0.0172 | 0.0164 | 0.0168 | 0.017
drug A concentration 1 µM | 0.0463 | 0.045 | 0.0414 | 0.0293 | 0.0209 | 0.0181 | 0.0173 | 0.0169 | 0.0172 | 0.0172
drug A concentration 3.16228 µM | 0.0225 | 0.0225 | 0.0215 | 0.0203 | 0.0207 | 0.0173 | 0.0169 | 0.0175 | 0.0169 | 0.0164
drug A concentration 10 µM | 0.0198 | 0.0196 | 0.0203 | 0.0186 | 0.0186 | 0.02 | 0.0189 | 0.0179 | 0.0182 | 0.0184
